Columns and labels:
[1] = tested on: bcl2 (DNA, G4) AGGGGCGGGCGCGGGAGGAAGGGGGCGGGAGCGGGGCTG; test: UV-Vis titration, reciprocal plot (Wolfe); conditions: K+ 100 mM (KCl); 50 mM Tris-HCl, pH 7.5, 25 °C
[2] = tested on: h-TERT (FAM/TAMRA) (DNA, G4) GGGGGCTGGGCCGGGGACCCGGGAGGGGTCGGGACGGGGCGGGG; test: FRET melting; conditions: 60 mM potassium cacodylate; pH 7.4; 1 μM compound, 0.2 μM oligonucleotide
[3] = tested on: bcl2 (DNA, G4) AGGGGCGGGCGCGGGAGGAAGGGGGCGGGAGCGGGGCTG; test: UV-Vis titration, intrinsic method (Rodger and Nordén); conditions: K+ 100 mM (KCl); 50 mM Tris-HCl, pH 7.5, 25 °C
[4] = tested on: bcl2 (FAM/TAMRA) (DNA, G4) AGGGGCGGGCGCGGGAGGAAGGGGGCGGGAGCGGGGCTG; test: FRET melting; conditions: 60 mM potassium cacodylate; pH 7.4; 1 μM compound, 0.2 μM oligonucleotide
[5] = tested on: c-Kit1 (DNA, G4) AGGGAGGGCGCTGGGAGGAGGG; test: UV-Vis titration, reciprocal plot (Wolfe); conditions: K+ 100 mM (KCl); 50 mM Tris-HCl, pH 7.5, 25 °C
[6] = tested on: c-Kit1 (FAM/TAMRA) (DNA, G4) AGGGAGGGCGCTGGGAGGAGGG; test: FRET melting; conditions: 60 mM potassium cacodylate; pH 7.4; 1 μM compound, 0.2 μM oligonucleotide
[7] = tested on: c-Kit1 (DNA, G4) AGGGAGGGCGCTGGGAGGAGGG; test: UV-Vis titration, intrinsic method (Rodger and Nordén); conditions: K+ 100 mM (KCl); 50 mM Tris-HCl, pH 7.5, 25 °C
[8] = tested on: h-TERT (DNA, G4) GGGGGCTGGGCCGGGGACCCGGGAGGGGTCGGGACGGGGCGGGG; test: as above; conditions: K+ 100 mM (KCl); 50 mM Tris-HCl, pH 7.5, 25 °C
[9] = tested on: h-TERT (DNA, G4) GGGGGCTGGGCCGGGGACCCGGGAGGGGTCGGGACGGGGCGGGG; test: UV-Vis titration, reciprocal plot (Wolfe); conditions: K+ 100 mM (KCl); 50 mM Tris-HCl, pH 7.5, 25 °C

With `CC[N+](CC)(CC)Cc1ccc([O-])c(C=NCCN=Cc2cc(C[N+](CC)(CC)CC)ccc2[O-])c1.[Ni+2]` the K b [1] was “(2.0 ± 0.4) × 10^5 M^–1”, the binding [2] was “yes” and the K b [3] was “(3.4 ± 0.3) × 10^4 M^–1”. The binding [4] was “yes”, the K b [5] was “(2.4 ± 0.5) × 10^5 M^–1” and the binding [6] was “yes”. The K b [7] was “(4.9 ± 0.3) × 10^4 M^–1”, the K b [8] was “(3.7 ± 0.4) × 10^4 M^–1” and the K b [9] was “(1.1 ± 0.1) × 10^5 M^–1”.
With `CC[N+](CC)(CC)Cc1ccc([O-])c(C=NCCN=Cc2cc(C[N+](CC)(CC)CC)ccc2[O-])c1.[Cu+2]` the binding [2] was “yes”, the binding [4] was “yes” and the binding [6] was “yes”.
